Assay results from US8871753B2, “Macrocyclic compounds and their use as kinase inhibitors” (Incyte Corporation, priority 2008, dated 2014).

Legend:
[1] = molecular target: T1, human JAK1 (a.a. 837-1142) (Homo sapiens, UniProt P23458); assay: In vitro JAK kinase assay (HTRF, phosphorylation of a biotinylated peptide), JAK1; assay type: biochemical; details: Table D1; read-out: JAK1 IC50
T1 construct: human JAK1 (a.a. 837-1142); His tag (N); made in house; host or cells: insect cells (baculovirus)
Method: (§1) The catalytic activity of JAK1, JAK2 or JAK3 was assayed by measuring the phosphorylation of a biotinylated peptide. The phosphorylated peptide was detected by homogenous time resolved fluorescence (HTRF). […] The ATP concentration in the reactions was 90 μM for JAK1, 30 μM for JAK2 and 3 μM for JAK3. Reactions were carried out at room temperature for 1 hr and then stopped with 20 μL 45 mM EDTA, 300 nM SA-APC, 6 nM Eu-Py20 in assay buffer (Perkin Elmer, Boston, Mass.). Binding to the Europium labeled antibody took place for 40 minutes and HTRF signal was measured on a Fusion plate reader (Perkin Elmer, Boston, Mass.).
(§2) The catalytic activity of JAK1, JAK2 or JAK3 was assayed by measuring the phosphorylation of a biotinylated peptide. The phosphorylated peptide was detected by homogenous time resolved fluorescence (HTRF). […] Reactions were carried out at room temperature for 1 hr and then stopped with 20 μL 45 mM EDTA, 300 nM SA-APC, 6 nM Eu-Py20 in assay buffer (Perkin Elmer, Boston, Mass.). Binding to the Europium labeled antibody took place for 40 minutes and HTRF signal was measured on a Fusion plate reader (Perkin Elmer, Boston, Mass.).

[2] = molecular target: T2, human JAK2 (a.a. 828-1132) (Homo sapiens, UniProt O60674); assay: In vitro JAK kinase assay (HTRF, phosphorylation of a biotinylated peptide), JAK2; assay type: biochemical; details: Table D1
T2 construct: JAK2 (a.a. 828-1132); His tag (N); made in house; host or cells: insect cells (baculovirus)
Method: as §1, §2

T1 sequence (P23458 849-1154): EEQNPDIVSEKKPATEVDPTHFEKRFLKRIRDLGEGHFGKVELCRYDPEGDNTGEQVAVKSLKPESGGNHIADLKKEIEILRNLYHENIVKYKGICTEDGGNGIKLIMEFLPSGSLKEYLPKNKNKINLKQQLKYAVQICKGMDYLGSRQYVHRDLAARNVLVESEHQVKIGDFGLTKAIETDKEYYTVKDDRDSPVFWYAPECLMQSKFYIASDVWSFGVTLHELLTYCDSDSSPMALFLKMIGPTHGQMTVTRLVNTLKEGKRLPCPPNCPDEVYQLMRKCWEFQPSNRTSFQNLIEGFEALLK
T2 sequence (O60674 828-1132): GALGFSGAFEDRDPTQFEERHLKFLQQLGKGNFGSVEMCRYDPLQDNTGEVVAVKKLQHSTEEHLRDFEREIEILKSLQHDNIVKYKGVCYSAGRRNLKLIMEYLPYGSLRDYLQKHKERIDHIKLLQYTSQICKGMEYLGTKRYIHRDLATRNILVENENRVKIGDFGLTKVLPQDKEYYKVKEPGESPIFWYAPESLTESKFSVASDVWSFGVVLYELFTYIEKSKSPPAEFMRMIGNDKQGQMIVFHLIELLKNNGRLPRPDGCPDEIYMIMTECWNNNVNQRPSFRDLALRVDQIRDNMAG

Row | SMILES | IC50 [1] | IC50 [2]
1 | CS(=O)(=O)N1CC[C@H](CC(=O)Nc2ccc3cc2CCc2cncc(c2)Nc2ncc(Cl)c(n2)N3)C1 [Example D112, N-[6-Chloro-2,4,8,18,22-pentaazatetracyclo[14.3.1.1(3,7).1(9,13)]docosa-1(20),3(22),4,6,9(21),10,12,16,18-nonaen-12-yl]-2-[(3R)-1-(methylsulfonyl)pyrrolidin-3-yl]acetamide bis(trifluoroacetate)] | 9.9 nM | 142 nM
2 | N#Cc1ccc(NC(=O)N2CC[C@H](CC(=O)Nc3ccc4cc3CCc3cncc(c3)Nc3ncc(Cl)c(n3)N4)C2)cc1 [Example D98, (3R)-3-(2-{[6-Chloro-2,4,8,18,22-pentaazatetracyclo[14.3.1.1(3,7).1(9,13)]docosa-1(20),3(22),4,6,9(21),10,12,16,18-nonaen-12-yl]amino}-2-oxoethyl)-N-(4-cyanophenyl)pyrrolidine-1-carboxamide bis(trifluoroacetate)] | 12 nM | 122 nM
3 | O=C(C[C@H]1CCN(C(=O)Nc2cccnc2)C1)Nc1ccc2cc1CCc1cncc(c1)Nc1ncc(Cl)c(n1)N2 [Example D101, (3R)-3-(2-{[6-Chloro-2,4,8,18,22-pentaazatetracyclo[14.3.1.1(3,7).1(9,13)]docosa-1(20),3(22),4,6,9(21),10,12,16,18-nonaen-12-yl]amino}-2-oxoethyl)-N-pyridin-3-ylpyrrolidine-1-carboxamide tris(trifluoroacetate)] | 14 nM | 172 nM
4 | O=C(C[C@H]1CCN(C(=O)Nc2ccccc2)C1)Nc1ccc2cc1CCc1cncc(c1)Nc1ncc(Cl)c(n1)N2 [Example D97, (3R)-3-(2-{[6-Chloro-2,4,8,18,22-pentaazatetracyclo[14.3.1.1(3,7).1(9,13)]docosa-1(20),3(22),4,6,9(21),10,12,16,18-nonaen-12-yl]amino}-2-oxoethyl)-N-phenylpyrrolidine-1-carboxamide bis(trifluoroacetate)] | 3.3 nM | 84 nM
5 | N#Cc1ccccc1NC(=O)N1CC[C@@H](CC(=O)Nc2ccc3cc2CCc2cncc(c2)Nc2ncc(Cl)c(n2)N3)C1 [Example D116, (3S)-3-(2-{[6-Chloro-2,4,8,18,22-pentaazatetracyclo[14.3.1.1(3,7).1(9,13)]docosa-1(20),3(22),4,6,9(21),10,12,16,18-nonaen-12-yl]amino}-2-oxoethyl)-N-(2-cyanophenyl)pyrrolidine-1-carboxamide bis(trifluoroacetate)] | 23 nM | 577 nM
6 | Cn1cncc1C(=O)N1CC[C@H](CC(=O)Nc2ccc3cc2CCc2cncc(c2)Nc2ncc(Cl)c(n2)N3)C1 [Example D111, N-[6-Chloro-2,4,8,18,22-pentaazatetracyclo[14.3.1.1(3,7).1(9,13)]docosa-1(20),3(22),4,6,9(21),10,12,16,18-nonaen-12-yl]-2-{(3R)-1-[(1-methyl-1H-imidazol-5-yl)carbonyl]pyrrolidin-3-yl}acetamide tris(trifluoroacetate)] | 61 nM | 689 nM
7 | N#Cc1ccccc1NC(=O)N1CC[C@H](CC(=O)Nc2ccc3cc2CCc2cncc(c2)Nc2ncc(Cl)c(n2)N3)C1 [Example D100, (3R)-3-(2-{[6-Chloro-2,4,8,18,22-pentaazatetracyclo[14.3.1.1(3,7).1(9,13)]docosa-1(20),3(22),4,6,9(21),10,12,16,18-nonaen-12-yl]amino}-2-oxoethyl)-N-(2-cyanophenyl)pyrrolidine-1-carboxamide bis(trifluoroacetate)] | 20 nM | 191 nM
8 | O=C(C[C@@H]1CCN(C(=O)Nc2cccnc2)C1)Nc1ccc2cc1CCc1cncc(c1)Nc1ncc(Cl)c(n1)N2 [Example D117, (3S)-3-(2-{[6-Chloro-2,4,8,18,22-pentaazatetracyclo[14.3.1.1(3,7).1(9,13)]docosa-1(20),3(22),4,6,9(21),10,12,16,18-nonaen-12-yl]amino}-2-oxoethyl)-N-pyridin-3-ylpyrrolidine-1-carboxamide tris(trifluoroacetate)] | 39 nM | 392 nM
9 | Cn1cc(C(=O)N2CC[C@H](CC(=O)Nc3ccc4cc3CCc3cncc(c3)Nc3ncc(Cl)c(n3)N4)C2)cn1 [Example D107, N-[6-Chloro-2,4,8,18,22-pentaazatetracyclo[14.3.1.1(3,7).1(9,13)]docosa-1(20),3(22),4,6,9(21),10,12,16,18-nonaen-12-yl]-2-{(3R)-1-[(1-methyl-1H-pyrazol-4-yl)carbonyl]pyrrolidin-3-yl}acetamide bis(trifluoroacetate)] | 25 nM | 185 nM
10 | O=C(C[C@H]1CCN(C(=O)c2ccno2)C1)Nc1ccc2cc1CCc1cncc(c1)Nc1ncc(Cl)c(n1)N2 [Example D105, N-[6-Chloro-2,4,8,18,22-pentaazatetracyclo[14.3.1.1(3,7).1(9,13)]docosa-1(20),3(22),4,6,9(21),10,12,16,18-nonaen-12-yl]-2-[(3R)-1-(isoxazol-5-ylcarbonyl)pyrrolidin-3-yl]acetamide bis(trifluoroacetate)] | 25 nM | 216 nM

The remaining lines, values ahead:

Row | IC50 [1] | IC50 [2] | SMILES
11 | 75 nM | 550 nM | Cn1ccc(C(=O)N2CC[C@@H](CC(=O)Nc3ccc4cc3CCc3cncc(c3)Nc3ncc(Cl)c(n3)N4)C2)n1 [Example D121, N-[6-Chloro-2,4,8,18,22-pentaazatetracyclo[14.3.1.1(3,7).1(9,13)]docosa-1(20),3(22),4,6,9(21),10,12,16,18-nonaen-12-yl]-2-{(3S)-1-[(1-methyl-1H-pyrazol-3-yl)carbonyl]pyrrolidin-3-yl}acetamide bis(trifluoroacetate)]
12 | 65 nM | 462 nM | Cc1cc(C(=O)N2CCC[C@H](CC(=O)Nc3ccc4cc3CCc3cncc(c3)Nc3ncc(Cl)c(n3)N4)C2)no1 [Example D209, N-[6-Chloro-2,4,8,18,22-pentaazatetracyclo[14.3.1.1(3,7).1(9,13)]docosa-1(20),3(22),4,6,9(21),10,12,16,18-nonaen-12-yl]-2-{(3R)-1-[(5-methylisoxazol-3-yl)carbonyl]piperidin-3-yl}acetamide bis(trifluoroacetate)]
13 | 33 nM | 600 nM | O=C(C[C@H]1CCN(C(=O)c2cn[nH]c2)C1)Nc1ccc2cc1CCc1cncc(c1)Nc1ncc(Cl)c(n1)N2 [Example D129-b, N-[6-Chloro-2,4,8,18,22-pentaazatetracyclo[14.3.1.1(3,7).1(9,13)]docosa-1(20),3(22),4,6,9(21),10,12,16,18-nonaen-12-yl]-2-[(3R)-1-(1H-pyrazol-4-ylcarbonyl)pyrrolidin-3-yl]acetamide bis(trifluoroacetate)]
14 | 12 nM | 236 nM | O=C(C[C@@H]1CCN(C(=O)Nc2ccc(F)cc2)C1)Nc1ccc2cc1CCc1cncc(c1)Nc1ncc(Cl)c(n1)N2 [Example D118, (3S)-3-(2-{[6-Chloro-2,4,8,18,22-pentaazatetracyclo[14.3.1.1(3,7).1(9,13)]docosa-1(20),3(22),4,6,9(21),10,12,16,18-nonaen-12-yl]amino}-2-oxoethyl)-N-(4-fluorophenyl)pyrrolidine-1-carboxamide bis(trifluoroacetate)]
15 | 4.2 nM | 160 nM | O=C(C[C@@H]1CCCN(c2nc3ccccc3s2)C1)Nc1ccc2cc1CCc1cncc(c1)Nc1ncc(Cl)c(n1)N2 [Example D211, 2-[(3S)-1-(1,3-Benzothiazol-2-yl)piperidin-3-yl]-N-[6-chloro-2,4,8,18,22-pentaazatetracyclo[14.3.1.1(3,7).1(9,13)]docosa-1(20),3(22),4,6,9(21),10,12,16,18-nonaen-12-yl]acetamide tris(trifluoroacetate)]
16 | 1 nM | 14 nM | O=C1c2ccccc2C(=O)N1CCS(=O)(=O)Nc1ccc2cc1CCc1cncc(c1)Nc1ncc(Cl)c(n1)N2 [Example D210, N-[6-Chloro-2,4,8,18,22-pentaazatetracyclo[14.3.1.1(3,7).1(9,13)]docosa-1(20),3(22),4,6,9(21),10,12,16,18-nonaen-12-yl]-2-(1,3-dioxo-1,3-dihydro-2H-isoindol-2-yl)ethanesulfonamide bis(trifluoroacetate)]
17 | 73 nM | 900 nM | O=C(C[C@@H]1CCN(C(=O)c2cn[nH]c2)C1)Nc1ccc2cc1CCc1cncc(c1)Nc1ncc(Cl)c(n1)N2 [Example D133, N-[6-Chloro-2,4,8,18,22-pentaazatetracyclo[14.3.1.1(3,7).1(9,13)]docosa-1(20),3(22),4,6,9(21),10,12,16,18-nonaen-12-yl]-2-[(3S)-1-(1H-pyrazol-4-ylcarbonyl)pyrrolidin-3-yl]acetamide bis(trifluoroacetate)]
18 | 15 nM | 84 nM | O=C(C[C@H]1CCN(C(=O)c2c[nH]nn2)C1)Nc1ccc2cc1CCc1cncc(c1)Nc1ncc(Cl)c(n1)N2 [Example D129-a, N-[6-Chloro-2,4,8,18,22-pentaazatetracyclo[14.3.1.1(3,7).1(9,13)]docosa-1(20),3(22),4,6,9(21),10,12,16,18-nonaen-12-yl]-2-[(3R)-1-(1H-1,2,3-triazol-4-ylcarbonyl)pyrrolidin-3-yl]acetamide bis(trifluoroacetate)]
